SMILES strings stand for the structures. In brackets after ≈: the same amount, converted by molar mass.

The first experiment concerns HUVECs (human umbilical vein endothelial cells). The experiment can be described thus: Inhibitory effect of fumagillol derivative on HUVEC cell growth (colorimetry). In kind it is cell-based. Particulars: Homo sapiens, HUVEC. As to the method: Using the HUVECs (human umbilical vein endothelial), the effect of the fumagillol derivative of the present invention on cell growth was evaluated.
The HUVECs were added to M199 medium supplemented with 20% FBS (fetal bovine serum), 100 U/ml penicillin, 100 μg/ml streptomycin, 1.5 g/L sodium bicarbonate, 0.1 mg/ml endothelial cell growth supplement (Sigma) and 0.1 mg/ml heparin (Sigma), after which the cells were incubated in an incubator at 37° C. under 5% CO2. Cells were subcultured a maximum of 8 times before being discarded.
In order to evaluate inhibitory activity of the fumagillin derivative on growth of HUVECs, the inventive compound was dissolved in DMSO and its concentration was adjusted from 10 mM to 1 mM. Cells were aliquotted to 96 well plates at a density of 2×10^3 cells per well and incubated for about 12–24 hours to be properly attached to the plate. Thereafter, the medium was replaced with new medium. The cells were treated with the compound obtained from each of the above examples at various concentration ranges of from 10 μM to […], and cultured for 2–3 days, followed by removing 100 μl of the medium from each well.
Colorimetry was performed to determine the extent of cell growth. The cells on each plate was added with 20 μl of aqueous one solution and then incubated at 37° C. under 5% CO2 for 2 hours. Using a 96-well plate reader, absorption was measured at 490 nm.
As such, a conventional TNP-470 having angiogenesis inhibitory effect was used as a control.
Take `CO[C@@H]1[C@H](OC(=O)CNCCBr)CC[C@]2(CO2)[C@H]1[C@@]1(C)OC1CC=C(C)C` (stereo partly shown) [Ex. 61, 6-O-(2-bromoethylamino)acetyl fumagillol]: the IC50 (usually the point on the concentration scale where inhibition reaches its midpoint) was found to be 2800 ng/mL (≈ 6270 nM).

Still in this experiment, the particulars now being: Homo sapiens, HUVEC, HUVEC growth, cultured 2–3 days with compound, absorption at 490 nm; read-out: IC50.
Consider `COc1ccc(NCC(=O)O[C@@H]2CC[C@]3(CO3)[C@@H]([C@@]3(C)OC3CC=C(C)C)[C@@H]2OC)cn1` (stereo partly shown) [Ex. 36, 6-O-(5-amino-2-methoxypyridine)acetyl fumagillol], for which the concentration for half-maximal inhibition (IC50) was found to be 0.021 ng/mL (≈ 0.047 nM). Turning to `CCOc1cc(C)c(NCC(=O)O[C@@H]2CC[C@]3(CO3)[C@@H]([C@@]3(C)OC3CC=C(C)C)[C@@H]2OC)cc1C(C)C` (stereo partly shown) [Ex. 16, 6-O-(3-isopropyl-4-ethoxy-6-methylaniline)acetyl fumagillol], the IC50 amounted to 0.17 ng/mL (≈ 0.33 nM).

Consider `CO[C@@H]1[C@H](OC(=O)NC(=O)CCl)CC[C@]2(CO2)[C@H]1[C@@]1(C)O[C@@H]1CC=C(C)C` [TNP-470, reference compound], for which the concentration for half-maximal inhibition (IC50) came to 29 ng/mL (≈ 72.2 nM).

Take `COc1cc(NCC(=O)O[C@@H]2CC[C@]3(CO3)[C@@H]([C@@]3(C)OC3CC=C(C)C)[C@@H]2OC)c([N+](=O)[O-])cc1OC` (stereo partly shown) [Ex. 5, 6-O-(3,4-dimethoxy-6-nitroaniline)acetyl fumagillol]: the IC50 is 142 ng/mL (≈ 273 nM). Consider `CCOC(=O)CNCC(=O)O[C@@H]1CC[C@]2(CO2)[C@@H]([C@@]2(C)OC2CC=C(C)C)[C@@H]1OC` (stereo partly shown) [Ex. 73, 6-O-(ethyl-2-aminoacetate)acetyl fumagillol], for which the IC50 is 1200 ng/mL (≈ 2820 nM). With `CO[C@@H]1[C@H](OC(=O)CNc2ccc3c(c2)OCO3)CC[C@]2(CO2)[C@H]1[C@@]1(C)OC1CC=C(C)C` (stereo partly shown) [Ex. 23, 6-O-(3,4-methylenedioxyaniline)acetyl fumagillol], the IC50 turned out to be 0.24 ng/mL (≈ 0.522 nM). Same read-out and setting: the result for `COc1c(C(C)C)cc(NCC(=O)O[C@@H]2CC[C@]3(CO3)[C@@H]([C@@]3(C)OC3CC=C(C)C)[C@@H]2OC)cc1C(C)C` (stereo partly shown) [Ex. 14, 6-O-(3,5-diisopropyl-4-methoxyaniline)acetyl fumagillol] reads 14 ng/mL (≈ 26.4 nM); that for `CO[C@@H]1[C@H](OC(=O)CNC(C)C(C)(C)C)CC[C@]2(CO2)[C@H]1[C@@]1(C)OC1CC=C(C)C` (stereo partly shown) [Ex. 53, 6-O-(1,2,2-trimethylpropylamino)acetyl fumagillol], 162 ng/mL (≈ 382 nM).

For the compound `CO[C@@H]1[C@H](OC(=O)CNC2CCCC2)CC[C@]2(CO2)[C@H]1[C@@]1(C)OC1CC=C(C)C` (stereo partly shown) [Ex. 65, 6-O-(cyclopentylamino)acetyl fumagillol], the IC50 stood at 250 ng/mL (≈ 613 nM). Still for that read-out and setting: with `COC(CNCC(=O)O[C@@H]1CC[C@]2(CO2)[C@@H]([C@@]2(C)OC2CC=C(C)C)[C@@H]1OC)OC` (stereo partly shown) [Ex. 77, 6-O-(2,2-dimethoxyethylamino)acetyl fumagillol] the figure was 330 ng/mL (≈ 772 nM); with `COc1ccc(NCC(=O)O[C@@H]2CC[C@]3(CO3)[C@@H]([C@@]3(C)OC3CC=C(C)C)[C@@H]2OC)nn1` (stereo partly shown) [Ex. 38, 6-O-(3-methoxy-6-aminopyridazine)acetyl fumagillol], 0.019 ng/mL (≈ 0.0425 nM); with `CCC(C)C(C)NCC(=O)O[C@@H]1CC[C@]2(CO2)[C@@H]([C@@]2(C)OC2CC=C(C)C)[C@@H]1OC` (stereo partly shown) [Ex. 52, 6-O-(1,2-dimethylbutylamino)acetyl fumagillol], 290 ng/mL (≈ 685 nM).

As to `CCC(CC)NCC(=O)O[C@@H]1CC[C@]2(CO2)[C@@H]([C@@]2(C)OC2CC=C(C)C)[C@@H]1OC` (stereo partly shown) [Ex. 50, 6-O-(1-ethyl-propylamino)acetyl fumagillol], the IC50 was determined as 24 ng/mL (≈ 58.6 nM). Regarding `COc1ccc(NCC(=O)O[C@@H]2CC[C@]3(CO3)[C@@H]([C@@]3(C)OC3CC=C(C)C)[C@@H]2OC)c(OC)c1OC` (stereo partly shown) [Ex. 25], the IC50 came to 0.31 ng/mL (≈ 0.613 nM). Take `CO[C@@H]1[C@H](OC(=O)CNCC(C)(C)OC)CC[C@]2(CO2)[C@H]1[C@@]1(C)OC1CC=C(C)C` (stereo partly shown) [Ex. 70, 6-O-(2-methoxy-2-methyl-propylamino)acetyl fumagillol]: the IC50 worked out at 178 ng/mL (≈ 418 nM). As for `CCCCCNCC(=O)O[C@@H]1CC[C@]2(CO2)[C@@H]([C@@]2(C)OC2CC=C(C)C)[C@@H]1OC` (stereo partly shown) [Ex. 48, 6-O-(pentylamino)acetyl fumagillol], the IC50 turned out to be 3000 ng/mL (≈ 7320 nM). As to `CO[C@@H]1[C@H](OC(=O)CNc2ccc(N)cc2)CC[C@]2(CO2)[C@H]1[C@@]1(C)OC1CC=C(C)C` (stereo partly shown) [Ex. 22, 6-O-(4-aminoaniline)acetyl fumagillol], the IC50 was 179 ng/mL (≈ 416 nM). As to `CCCOc1ccc(NCC(=O)O[C@@H]2CC[C@]3(CO3)[C@@H]([C@@]3(C)OC3CC=C(C)C)[C@@H]2OC)cc1` (stereo partly shown) [Ex. 17, 6-O-(4-propyloxyaniline)acetyl fumagillol], the half-maximal inhibitory concentration (IC50) worked out at 0.61 ng/mL (≈ 1.29 nM). For `CO[C@@H]1[C@H](OC(=O)CNC(C)CN(C)C)CC[C@]2(CO2)[C@H]1[C@@]1(C)OC1CC=C(C)C` (stereo partly shown) [Ex. 68, 6-O-(2-dimethylamino-1-methylethylamino)acetyl fumagillol], the 50% inhibitory concentration (IC50) is 240 ng/mL (≈ 565 nM). `CCCCC(C)NCC(=O)O[C@@H]1CC[C@]2(CO2)[C@@H]([C@@]2(C)OC2CC=C(C)C)[C@@H]1OC` (stereo partly shown) [Ex. 51, 6-O-(1-methyl-pentylamino)acetyl fumagillol]: the IC50 is 32000 ng/mL (≈ 75500 nM). Turning to `COc1cc(C#N)c(NCC(=O)O[C@@H]2CC[C@]3(CO3)[C@@H]([C@@]3(C)OC3CC=C(C)C)[C@@H]2OC)cc1OC` (stereo partly shown) [Ex. 6, 6-O-(3,4-dimethoxy-6-cyanoaniline)acetyl fumagillol], the IC50 came to 19 ng/mL (≈ 38 nM).

As for `CO[C@@H]1[C@H](OC(=O)CNC#CCl)CC[C@]2(CO2)[C@H]1[C@@]1(C)OC1CC=C(C)C` (stereo partly shown) [Ex. 62, 6-O-(chloroethynylamino)acetyl fumagillol], the IC50 came to 340 ng/mL (≈ 854 nM).

Regarding `CO[C@@H]1[C@H](OC(=O)CNC2CC2)CC[C@]2(CO2)[C@H]1[C@@]1(C)OC1CC=C(C)C` (stereo partly shown) [Ex. 63, 6-O-(cyclopropylamino)acetyl fumagillol], the IC50 amounted to 0.008 ng/mL (≈ 0.0211 nM). Turning to `CO[C@@H]1[C@H](OC(=O)CNC(C)CCC=C(C)C)CC[C@]2(CO2)[C@H]1[C@@]1(C)OC1CC=C(C)C` (stereo partly shown) [Ex. 58, 6-O-(1,5-dimethyl-4-hexenylamino)acetyl fumagillol], the IC50 was 415 ng/mL (≈ 923 nM). As to `CO[C@@H]1[C@H](OC(=O)CNCC(C)N(C)C)CC[C@]2(CO2)[C@H]1[C@@]1(C)OC1CC=C(C)C` (stereo partly shown) [Ex. 69, 6-O-(2-dimethylamino-propylamino)acetyl fumagillol], the IC50 came to 260 ng/mL (≈ 612 nM). For `CO[C@@H]1[C@H](OC(=O)CNc2ccc(C(F)(F)F)cc2)CC[C@]2(CO2)[C@H]1[C@@]1(C)OC1CC=C(C)C` (stereo partly shown) [Ex. 32, 6-O-(4-trifluoromethylaniline)acetyl fumagillol], the half-maximal inhibitory concentration (IC50) was 128 ng/mL (≈ 265 nM). Same read-out and setting: with `CCC(C)NCC(=O)O[C@@H]1CC[C@]2(CO2)[C@@H]([C@@]2(C)OC2CC=C(C)C)[C@@H]1OC` (stereo partly shown) [Ex. 45, 6-O-(sec-butylamino)acetyl fumagillol] the figure was 370 ng/mL (≈ 935 nM).

Take `CO[C@@H]1[C@H](OC(=O)CNc2ccc(C#N)cc2)CC[C@]2(CO2)[C@H]1[C@@]1(C)OC1CC=C(C)C` (stereo partly shown) [Ex. 34, 6-O-(4-cyanoaniline)acetyl fumagillol]: the IC50 amounted to 98 ng/mL (≈ 222 nM). With `CO[C@@H]1[C@H](OC(=O)CNc2ccc(OCCOC(C)=O)cc2)CC[C@]2(CO2)[C@H]1[C@@]1(C)OC1CC=C(C)C` (stereo partly shown) [Ex. 8, 6-O-(4-(2-acetoxyethoxy)aniline)acetyl fumagillol], the IC50 was determined as 42 ng/mL (≈ 81.1 nM). Turning to `CO[C@@H]1[C@H](OC(=O)CCl)CC[C@]2(CO2)[C@H]1[C@@]1(C)OC1CC=C(C)C` (stereo partly shown) [Intermediate, 6-O-(chloro)acetyl fumagillol], the IC50 worked out at 2000 ng/mL (≈ 5570 nM).

Still in this experiment, the particulars now being: Homo sapiens; HUVEC growth, cultured 2–3 days with compound, absorption at 490 nm; read-out: IC50.
On to `COc1cnc(NCC(=O)O[C@@H]2CC[C@]3(CO3)[C@@H]([C@@]3(C)OC3CC=C(C)C)[C@@H]2OC)nc1` (stereo partly shown) [Ex. 37, 6-O-(5-methoxypyrimidine-2-amino)acetyl fumagillol], for which the IC50 was 0.017 ng/mL (≈ 0.038 nM). Still for that read-out and setting: the result for `C=C(C)CNCC(=O)O[C@@H]1CC[C@]2(CO2)[C@@H]([C@@]2(C)OC2CC=C(C)C)[C@@H]1OC` (stereo partly shown) [Ex. 56, 6-O-(2-methyl-allylamino)acetyl fumagillol] reads 28 ng/mL (≈ 71.2 nM); that for `CO[C@@H]1[C@H](OC(=O)CNc2ccc(N(C)C)cc2)CC[C@]2(CO2)[C@H]1[C@@]1(C)OC1CC=C(C)C` (stereo partly shown) [Ex. 20, 6-O-(4-dimethylaminoaniline)acetyl fumagillol], 162 ng/mL (≈ 353 nM).

The values are drawn from patent US7087768B2, “Fumagillol derivatives and preparing method thereof” (Equispharm Co., Ltd., priority 2001, dated 2006).
